{"source": "patent US9907776B2", "about": "(priority 2013, dated 2018)", "key": {"[1]": {"test_system": "PTZ (Pentylenetetrazol) induced clonic seizure", "experiment": "animal or person", "type": "in vivo, Rats; SD", "conditions": "for PTZ test (ip) Protection % (Rats): rat, in vivo"}, "[2]": {"test_system": "corneally kindled seizures", "experiment": "animal or person", "type": "in vivo, Sprague-Dawley rats", "conditions": "Rattus norvegicus, po"}, "[3]": {"test_system": "PTZ (Pentylenetetrazol) induced clonic seizure", "parameters": "species or system Mouse; ICR", "conditions": "mouse, in vivo"}, "[4]": {"test_system": "hippocampal kindled seizures", "experiment": "animal or person", "type": "in vivo, Sprague-Dawley rats", "conditions": "Rattus norvegicus, ip, read-out: HK (ip) ED50"}, "[5]": {"conditions": "read-out: CK(po) Protection % (Rats)"}}}
{"smiles": "CC(OC(N)=O)C(O)c1ccccc1Cl", "note": "(racemic) [Example 3, 1-(2-chlorophenyl)-1-hydroxypropyl-2-carbamate]", "values": [{"measurement": "ED50", "setting": "[1]; Rattus norvegicus, ip, read-out: PTZ test (ip) Rats ED50", "result": 81.9, "unit": "mg/kg"}, {"measurement": "responders at 10 mg/kg", "setting": "[2]; [5]", "result": 50, "unit": "%"}]}
{"smiles": "CCC(OC(N)=O)C(O)c1ccccc1Cl", "note": "(racemic) [Example 8, 1-(2-chlorophenyl)-1-hydroxybutyl-2-carbamate]", "values": [{"measurement": "PTZ test (ip) Protection % (Mice)", "setting": "[3]", "result": "^a20.4 (50%)^"}]}
{"smiles": "CCCCC(OC(N)=O)C(O)c1ccccc1Cl", "note": "(racemic) [Example 14, 1-(2-chlorophenyl)-1-hydroxyhexyl-2-carbamate]", "values": [{"measurement": "PTZ test (ip) Protection % (Mice)", "setting": "[3]", "result": "^a20.4 (16.7%)"}]}
{"smiles": "CNC(=O)OC(C)C(O)c1ccccc1Cl", "note": "(racemic) [Example 29, 1-(2-chlorophenyl)-1-hydroxypropyl-2-N-methylcarbamate]", "values": [{"measurement": "PTZ test (ip) Protection % (Mice)", "setting": "[3]", "result": "^a20.4 (33.3%)"}]}
{"smiles": "CCCNC(=O)OC(C)C(O)c1ccccc1Cl", "note": "(racemic) [Example 30, 1-(2-chlorophenyl)-1-hydroxypropyl-2-N-propylcarbamate]", "values": [{"measurement": "PTZ test (ip) Protection % (Mice)", "setting": "[3]", "result": "^a20.4 (33.3%)"}]}
{"smiles": "CC(C)NC(=O)OC(C)C(O)c1ccccc1Cl", "note": "(racemic) [Example 31, 1-(2-chlorophenyl)-1-hydroxypropyl-2-N-isopropylcarbamate]", "values": [{"measurement": "PTZ test (ip) Protection % (Mice)", "setting": "[3]", "result": "^a20.4 (83.3%)"}]}
{"smiles": "CC(OC(=O)NC1CC1)C(O)c1ccccc1Cl", "note": "(racemic) [Example 32, 1-(2-chlorophenyl)-1-hydroxypropyl-2-N-cyclopropylcarbamate]", "values": [{"measurement": "PTZ test (ip) Protection % (Mice)", "setting": "[3]", "result": "^a20.4 (16.7%)"}]}
{"smiles": "C[C@H](OC(N)=O)[C@@H](O)c1ccccc1Cl", "note": "[Example 1, 1-(2-chlorophenyl)-(S)-1-hydroxypropyl-(S)-2-carbamate]", "values": [{"measurement": "ED50", "setting": "[2]; read-out: CK(po) ED50", "result": 2.8, "unit": "mg/kg"}, {"measurement": "ED50", "setting": "[4]", "result": 17.6, "unit": "mg/kg"}]}
{"smiles": "C[C@@H](OC(N)=O)[C@H](O)c1ccccc1Cl", "note": "[Example 2, 1-(2-chlorophenyl)-(R)-1-hydroxypropyl-(R)-2-carbamate]", "values": [{"measurement": "responders at 20 mg/kg", "setting": "[2]; [5]", "result": 16.7, "unit": "%"}]}
{"smiles": "C[C@@H](OC(N)=O)[C@@H](O)c1ccccc1Cl", "note": "[Example 4, 1-(2-chlorophenyl)-(S)-1-hydroxypropyl-(R)-2-carbamate]", "values": [{"measurement": "responders at 30 mg/kg", "setting": "[2]; [5]", "result": 100, "unit": "%"}]}
{"smiles": "C[C@H](OC(N)=O)[C@H](O)c1ccccc1Cl", "note": "[Example 5, 1-(2-chlorophenyl)-(R)-1-hydroxypropyl-(S)-2-carbamate]", "values": [{"measurement": "responders at 30 mg/kg", "setting": "[2]; [5]", "result": 50, "unit": "%"}]}
{"smiles": "CC[C@H](OC(N)=O)[C@@H](O)c1ccccc1Cl", "note": "[Example 6, 1-(2-chlorophenyl)-(S)-1-hydroxybutyl-(S)-2-carbamate]", "values": [{"measurement": "PTZ test (ip) Protection % (Rats)", "setting": "[1]", "result": "^b30 (50%)^"}, {"measurement": "responders at 10 mg/kg", "setting": "[2]; [5]", "result": 33.3, "unit": "%"}]}
{"smiles": "CC(C)[C@H](OC(N)=O)[C@@H](O)c1ccccc1Cl", "note": "[Example 9, 1-(2-chlorophenyl)-(S)-1-hydroxy-3-methyl-butyl-(S)-2-carbamate]", "values": [{"measurement": "PTZ test (ip) Protection % (Mice)", "setting": "[3]", "result": "^a20.4 (33.3%)"}, {"measurement": "responders at 30 mg/kg", "setting": "[2]; [5]", "result": 16.7, "unit": "%"}]}
{"smiles": "CCCC[C@H](OC(N)=O)[C@@H](O)c1ccccc1Cl", "note": "[Example 12, 1-(2-chlorophenyl)-(S)-1-hydroxyhexyl-(S)-2-carbamate]", "values": [{"measurement": "PTZ test (ip) Protection % (Mice)", "setting": "[3]", "result": "^a20.4 (33.3%)"}]}
{"smiles": "CCCC[C@@H](OC(N)=O)[C@H](O)c1ccccc1Cl", "note": "[Example 13, 1-(2-chlorophenyl)-(R)-1-hydroxyhexyl-(R)-2-carbamate]", "values": [{"measurement": "PTZ test (ip) Protection % (Mice)", "setting": "[3]", "result": "^a20.4 (50%)^"}]}
{"smiles": "CNC(=O)O[C@@H](C)[C@@H](O)c1ccccc1Cl", "note": "[Example 15, 1-(2-chlorophenyl)-(S)-1-hydroxypropyl-(S)-2-N-methylcarbamate]", "values": [{"measurement": "PTZ test (ip) Protection % (Rats)", "setting": "[1]", "result": "^b25 (33.3%)"}]}
{"smiles": "CCCNC(=O)O[C@@H](C)[C@@H](O)c1ccccc1Cl", "note": "[Example 16, 1-(2-chlorophenyl)-(S)-1-hydroxypropyl-(S)-2-N-propylcarbamate]", "values": [{"measurement": "PTZ test (ip) Protection % (Rats)", "setting": "[1]", "result": "^b30 (33.3%)"}]}
{"smiles": "C[C@H](OC(=O)NC1CC1)[C@@H](O)c1ccccc1Cl", "note": "[Example 18, 1-(2-chlorophenyl)-(S)-1-hydroxypropyl-(R)-2-N-cyclopropylcarbamate]", "values": [{"measurement": "PTZ test (ip) Protection % (Rats)", "setting": "[1]", "result": "^b30 (16.7%)"}]}
{"smiles": "CCCNC(=O)O[C@H](C)[C@H](O)c1ccccc1Cl", "note": "[Example 23, 1-(2-chlorophenyl)-(R)-1-hydroxypropyl-(R)-2-N-propylcarbamate]", "values": [{"measurement": "PTZ test (ip) Protection % (Mice)", "setting": "[3]", "result": "^a20.4 (50%)^"}]}
{"smiles": "C[C@@H](OC(=O)NC1CC1)[C@H](O)c1ccccc1Cl", "note": "[Example 25, 1-(2-chlorophenyl)-(R)-1-hydroxypropyl-(R)-2-N-cyclopropylcarbamate]", "values": [{"measurement": "PTZ test (ip) Protection % (Mice)", "setting": "[3]", "result": "^a20.4 (66.7%)"}]}
{"smiles": "C[C@H](OC(N)=O)[C@@H](O)c1ccc(Cl)cc1Cl", "note": "[Example 36, 1-(2,4-dichlorophenyl)-(S)-1-hydroxypropyl-(S)-2-carbamate]", "values": [{"measurement": "PTZ test (ip) Protection % (Mice)", "setting": "[3]", "result": "^a20.4 (33.3%)"}, {"measurement": "responders at 30 mg/kg", "setting": "[2]; [5]", "result": 50, "unit": "%"}]}
{"smiles": "C[C@H](OC(N)=O)[C@@H](O)c1c(Cl)cccc1Cl", "note": "[Example 37, 1-(2,6-dichlorophenyl)-(S)-1-hydroxypropyl-(S)-2-carbamate]", "values": [{"measurement": "PTZ test (ip) Protection % (Rats)", "setting": "[1]", "result": "^b30 (50%)^"}, {"measurement": "responders at 10 mg/kg", "setting": "[2]; [5]", "result": 33.3, "unit": "%"}]}
{"smiles": "C[C@H](OC(N)=O)[C@@H](O)c1cccc(Cl)c1Cl", "note": "[Example 38, 1-(2,3-dichlorophenyl)-(S)-1-hydroxypropyl-(S)-2-carbamate]", "values": [{"measurement": "PTZ test (ip) Protection % (Mice)", "setting": "[3]", "result": "^a20.4 (50%)^"}, {"measurement": "responders at 30 mg/kg", "setting": "[2]; [5]", "result": 50, "unit": "%"}]}
{"smiles": "CC[C@H](OC(N)=O)[C@@H](O)c1ccc(Cl)cc1Cl", "note": "[Example 39, 1-(2,4-dichlorophenyl)-(S)-1-hydroxybutyl-(S)-2-carbamate]", "values": [{"measurement": "responders at 25 mg/kg", "setting": "[2]; [5]", "result": 100, "unit": "%"}]}
{"smiles": "CC[C@H](OC(N)=O)[C@@H](O)c1c(Cl)cccc1Cl", "note": "[Example 40, 1-(2,6-dichlorophenyl)-(S)-1-hydroxybutyl-(S)-2-carbamate]", "values": [{"measurement": "PTZ test (ip) Protection % (Mice)", "setting": "[3]", "result": "^a20.4 (33.3%)"}]}
{"smiles": "CC(C)[C@H](OC(N)=O)[C@@H](O)c1c(Cl)cccc1Cl", "note": "[Example 42, 1-(2,6-dichlorophenyl)-(S)-1-hydroxy-3-methyl-butyl-(S)-2-carbamate]", "values": [{"measurement": "PTZ test (ip) Protection % (Mice)", "setting": "[3]", "result": "^a20.4 (50%)^"}]}
{"smiles": "CCCC[C@H](OC(N)=O)[C@@H](O)c1ccc(Cl)cc1Cl", "note": "[Example 43, 1-(2,4-dichlorophenyl)-(S)-1-hydroxyhexyl-(S)-2-carbamate]", "values": [{"measurement": "PTZ test (ip) Protection % (Rats)", "setting": "[1]", "result": "^b25 (33.3%)"}]}
{"smiles": "CCCC[C@H](OC(N)=O)[C@@H](O)c1c(Cl)cccc1Cl", "note": "[Example 44, 1-(2,6-dichlorophenyl)-(S)-1-hydroxyhexyl-(S)-2-carbamate]", "values": [{"measurement": "PTZ test (ip) Protection % (Mice)", "setting": "[3]", "result": "^a20.4 (33.3%)"}]}
{"smiles": "C[C@@H](OC(N)=O)[C@H](O)c1ccc(Cl)cc1Cl", "note": "[Example 45, 1-(2,4-dichlorophenyl)-(R)-1-hydroxypropyl-(R)-2-carbamate]", "values": [{"measurement": "PTZ test (ip) Protection % (Mice)", "setting": "[3]", "result": "^a20.4 (16.7%)"}, {"measurement": "PTZ test (ip) Protection % (Rats)", "setting": "[1]", "result": "^b50 (16.7%)"}]}
{"smiles": "C[C@@H](OC(N)=O)[C@H](O)c1c(Cl)cccc1Cl", "note": "[Example 46, 1-(2,6-dichlorophenyl)-(R)-1-hydroxypropyl-(R)-2-carbamate]", "values": [{"measurement": "PTZ test (ip) Protection % (Mice)", "setting": "[3]", "result": "^a20.4 (50%)^"}, {"measurement": "responders at 20 mg/kg", "setting": "[2]; [5]", "result": 50, "unit": "%"}]}
{"smiles": "C[C@H](OC(N)=O)[C@@H](O)c1ccccc1F", "note": "[Example 63, 1-(2-fluorophenyl)-(S)-1-hydroxypropyl-(S)-2-carbamate]", "values": [{"measurement": "PTZ test (ip) Protection % (Mice)", "setting": "[3]", "result": "^a20.4 (50%)^"}, {"measurement": "responders at 20 mg/kg", "setting": "[2]; [5]", "result": 100, "unit": "%"}]}
{"smiles": "C[C@H](OC(N)=O)[C@@H](O)c1ccccc1I", "note": "[Example 65, 1-(2-iodophenyl)-(S)-1-hydroxypropyl-(S)-2-carbamate]", "values": [{"measurement": "PTZ test (ip) Protection % (Mice)", "setting": "[3]", "result": "^a20.4 (100%)"}, {"measurement": "responders at 2.8 mg/kg", "setting": "[2]; [5]", "result": 33.3, "unit": "%"}]}
{"smiles": "CC[C@H](OC(N)=O)[C@@H](O)c1ccccc1I", "note": "[Example 67, 1-(2-iodophenyl)-(S)-1-hydroxybutyl-(S)-2-carbamate]", "values": [{"measurement": "PTZ test (ip) Protection % (Rats)", "setting": "[1]", "result": "^b30 (33.3%)"}, {"measurement": "responders at 30 mg/kg", "setting": "[2]; [5]", "result": 100, "unit": "%"}]}
